Broadly, the Ki is a dissociation constant, usually derived from enzyme kinetics or from competition with a known ligand.

Molecules are shown by their SMILES. Where only a bound is given, the exact number is not on record here.

In the assay the target is T1, purified catalytic domain of recombinant human TACE (rhTACEc) (Homo sapiens, UniProt P78536, N452Q/S266A).
T1 construct: rhTACEc, Residue 215 to 477 with two mutation (S266A and N4520) and a 6×His tail; 6xHis (C); made in house; host or cells: baculovirus/Hi5 insect cells
T1 sequence (P78536 215-477 S266A/N452Q limits assumed): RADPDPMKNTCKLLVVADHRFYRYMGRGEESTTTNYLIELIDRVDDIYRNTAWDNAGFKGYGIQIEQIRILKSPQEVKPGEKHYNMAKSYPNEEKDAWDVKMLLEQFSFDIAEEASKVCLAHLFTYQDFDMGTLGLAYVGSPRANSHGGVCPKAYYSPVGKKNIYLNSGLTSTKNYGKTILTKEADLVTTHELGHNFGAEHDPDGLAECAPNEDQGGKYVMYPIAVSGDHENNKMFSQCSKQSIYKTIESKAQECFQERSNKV
Put plainly: TACE kinetic assay, cleavage of internally quenched fluorescent peptide substrate SPDL-3. Format: biochemical. The settings on record: TACE; class letters A-D; read-out: Ki Rating.
`COc1ccc2c(c1)C(=O)N(C[C@@]1(C#Cc3ccc4c(c3)C(=O)C(=O)N4)NC(=O)NC1=O)C2` [Compound 1557]: the Ki was less than 5 nM. Turning to `COc1ccc2c(c1)C(=O)N(CC1(C#Cc3cccnc3)NC(=O)NC1=O)CC2` (stereo not drawn) [Compound 1558], the inhibition constant Ki fell in the range of 5 to 25 nM. In the case of `COc1ccc2c(c1)C(=O)N(C[C@@]1(C#Cc3ccc(C)nc3N)NC(=O)NC1=O)C2` [Compound 1559], the Ki was less than 5 nM. As for `COc1ccc2c(c1)C(=O)N(C[C@@]1(C#Cc3ccc4oc(=O)[nH]c4c3)NC(=O)NC1=O)C2` [Compound 1560], the inhibition constant (Ki) was less than 5 nM. In the case of `COc1ccc2c(c1)C(=O)N(C[C@@]1(C#Cc3cncnc3N)NC(=O)NC1=O)C2` [Compound 1561], the Ki is less than 5 nM.

With `COc1ccc2c(c1)C(=O)N(C[C@@]1(C#Cc3ccc(C4(CN)NC(=O)NC4=O)cc3)NC(=O)NC1=O)C2` (stereo partly drawn) [Compound 1562], the Ki is less than 5 nM. Consider `COc1ccc2c(c1)C(=O)N(C[C@@]1(C#Cc3ccc(F)nc3)NC(=O)NC1=O)C2` [Compound 1563], for which the Ki was less than 5 nM. On to `COc1ccc2c(c1Br)C(=O)N(CC1(C#Cc3cccnc3)NC(=O)NC1=O)C2` (stereo not drawn) [Compound 1564], for which the inhibition constant (Ki) lay in the range of 5 to 25 nM. Turning to `CON=C(C)c1ccc(C#C[C@]2(CN3Cc4ccc(OC)cc4C3=O)NC(=O)NC2=O)cc1` [Compound 1565], the Ki is less than 5 nM. Take `COc1ccc2c(c1)C(=O)N(C[C@@]1(C#Cc3ccc4[nH]c(=O)[nH]c(=O)c4c3)NC(=O)NC1=O)C2` [Compound 1566]: the inhibitory constant (Ki) is less than 5 nM. As to `COc1ccc2c(c1)C(=O)N(C[C@@]1(C#Cc3cnc(O)nc3N)NC(=O)NC1=O)C2` [Compound 1567], the Ki was less than 5 nM. Consider `COc1ccc2c(c1)C(=O)N(C[C@@]1(C#Cc3cnc4c(c3)CCC(=O)N4)NC(=O)NC1=O)C2` [Compound 1568], for which the inhibition constant Ki is less than 5 nM. With `COc1ccc2c(c1)C(=O)N(C[C@@]1(C#Cc3cc4ccccc4[nH]c3=O)NC(=O)NC1=O)C2` [Compound 1569] the figure was less than 5 nM; with `COc1ccc2c(c1)C(=O)N(C[C@@]1(C#Cc3ccc(C(=O)NS(=O)(=O)C4CC4)cc3)NC(=O)NC1=O)C2` [Compound 1570], less than 5 nM. Consider `COc1ccc2c(c1)C(=O)N(C[C@@]1(C#Cc3cnc(Cl)c(O)c3)NC(=O)NC1=O)C2` [Compound 1571], for which the Ki was less than 5 nM. In the case of `COc1ccc2c(c1)C(=O)N(C[C@@]1(C#Cc3cnc(N4CCSCC4)nc3N)NC(=O)NC1=O)C2` [Compound 1572], the Ki was less than 5 nM. Consider `COc1ccc2c(c1)C(=O)N(C[C@@]1(C#Cc3cnc(Cl)nc3N)NC(=O)NC1=O)C2` [Compound 1573], for which the Ki was less than 5 nM.

In the case of `COc1ccc2c(c1)C(=O)N(C[C@@]1(C#Cc3ccc(OC4SC(=O)NC4=O)cc3)NC(=O)NC1=O)C2` (stereo partly drawn) [Compound 1574], the Ki is less than 5 nM. Consider `COc1ccc2c(c1)C(=O)N(C[C@@]1(C#Cc3ccc(C(C)=NO)nc3)NC(=O)NC1=O)C2` [Compound 1575], for which the inhibitory constant (Ki) is less than 5 nM. With `COc1ccc2c(c1)C(=O)N(C[C@@]1(C#Cc3ccc4c(c3)CCC43NC(=O)NC3=O)NC(=O)NC1=O)C2` (stereo partly drawn) [Compound 1576], the Ki is less than 5 nM. To `COc1ccc2c(c1)C(=O)N(C[C@@]1(C#Cc3ccc(C4(C5CC5)NC(=O)NC4=O)cc3)NC(=O)NC1=O)C2` (stereo partly drawn) [Compound 1577] belongs less than 5 nM; to `COc1ccc2c(c1)C(=O)N(C[C@@]1(C#Cc3ccc(C)[nH]c3=O)NC(=O)NC1=O)C2` [Compound 1578], less than 5 nM; to `COc1ccc2c(c1)C(=O)N(C[C@@]1(C#Cc3cnccc3OC)NC(=O)NC1=O)C2` [Compound 1579], less than 5 nM. As to `COc1ccc2c(c1)C(=O)N(C[C@@]1(C#Cc3cccc(C4(C)NC(=O)NC4=O)c3)NC(=O)NC1=O)C2` (stereo partly drawn) [Compound 1580], the inhibitory constant (Ki) was less than 5 nM.

The record behind these values is US7772263B2, “Compounds for the treatment of inflammatory disorders” (Schering Corporation, priority 2006, dated 2010).
